Assay results: PubChem BioAssay (NCI)
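Tested at 5 concentrations; 48 h exposure; 96-well plates; endpoints linearly interpolated, else capped at highest concentration. Here, GI50 denotes the concentration required for 50% inhibition of growth. The concentration for full growth arrest is given as TGI.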

Tests used:
Assay in all cases: NCI-60 cell line screen, 48 h
[1] = tested on: OVCAR-4 ovarian
[2] = tested on: OVCAR-8 ovarian
[3] = tested on: SN12C renal
[4] = tested on: KM12 colon
[5] = tested on: SR leukemia
[6] = tested on: RPMI-8226 leukemia
[7] = tested on: HCT-116 colon
[8] = tested on: MOLT-4 leukemia
[9] = tested on: OVCAR-3 ovarian
[10] = tested on: MALME-3M melanoma

Row | Compound | TGI [1] | TGI [2] | TGI [3] | TGI [4] | TGI [5] | TGI [6] | TGI [7] | TGI [8] | TGI [9] | GI50 [1] | GI50 [2] | GI50 [10] | TGI [10] | GI50 [3] | GI50 [4] | GI50 [5] | GI50 [7] | GI50 [8] | GI50 [9] | GI50 [6]
1 | Nc1ncnc2c1nc(-c1ccccc1)n2C1OC(CO)C(O)C1O (stereo not given) | > 100 µM | > 100 µM | > 100 µM | > 100 µM | > 100 µM | > 100 µM | > 100 µM | > 100 µM | > 100 µM | – | – | – | – | – | – | – | – | – | – | –
2 | CN1CCC[C@@H]1CCO[C@](C)(c1ccccc1)c1ccc(Cl)cc1 | 22 µM | 24.7 µM | 18.7 µM | 20.2 µM | 9.59 µM | – | 13.7 µM | 18.1 µM | 20.8 µM | 8.46 µM | 10.8 µM | 1.79 µM | 4.85 µM | 4.54 µM | 7.04 µM | 2.32 µM | 3.62 µM | 4.12 µM | 7.96 µM | –
3 | CC(C)NCC(O)COC(=O)c1cccs1 (stereo not given) | > 100 µM | > 100 µM | > 100 µM | > 100 µM | – | > 100 µM | – | > 100 µM | > 100 µM | – | – | – | > 100 µM | – | – | – | – | – | – | –
4 | O=C(Nc1ccccc1)Nc1cccc(-n2cc(-c3ccncc3)c(-c3ccc(O)c(Cl)c3)n2)c1 | 25.7 µM | 21 µM | > 100 µM | 10.5 µM | 6.29 µM | 6.13 µM | 13.9 µM | 9.03 µM | – | 3.45 µM | 3.27 µM | 2.25 µM | 6.02 µM | 4.13 µM | 3.3 µM | 2.35 µM | 3.41 µM | 2.92 µM | – | 2.35 µM
5 | Cc1ccccc1NC(=O)C(=O)C(c1cnc2ccc([N+](=O)[O-])cc2n1)[N+](=O)[O-] (stereo not given) | > 100 µM | > 100 µM | > 100 µM | > 100 µM | > 100 µM | > 100 µM | > 100 µM | > 100 µM | – | – | – | – | > 100 µM | – | – | – | – | – | – | –
6 | CCc1ccccc1NC(=O)CCc1n[nH]c(=S)o1 | > 100 µM | > 100 µM | > 100 µM | > 100 µM | – | > 100 µM | 42.5 µM | > 100 µM | > 100 µM | – | – | – | > 100 µM | – | – | – | – | – | – | –
7 | Cc1c(C(=O)CC(=O)C(=O)Nc2ccc(Cl)c(Cl)c2)[n+](=O)c2ccccc2n1[O-] | 34.7 µM | 43.6 µM | 55.4 µM | > 100 µM | – | 45.7 µM | 35.4 µM | 44.5 µM | 7.91 µM | – | – | – | 36.5 µM | – | – | – | – | – | – | –
8 | C/C(CC(=O)NNc1ccc([N+](=O)[O-])cc1)=N\Nc1ccc([N+](=O)[O-])cc1 | > 100 µM | 38.1 µM | > 100 µM | > 100 µM | – | > 100 µM | 28.3 µM | > 100 µM | 31.1 µM | 5.92 µM | 14.2 µM | 10.6 µM | 66.5 µM | 17.8 µM | 2.12 µM | – | 6.04 µM | 6.45 µM | 8.03 µM | 7.91 µM
9 | NC(=O)N/N=C(\C(=O)C(=O)Nc1ccc(Cl)c(C(F)(F)F)c1)c1nc2ccc(C(=O)c3ccccc3)cc2[nH]c1=O | > 100 µM | > 100 µM | > 100 µM | > 100 µM | > 100 µM | > 100 µM | > 100 µM | > 100 µM | – | – | – | – | > 100 µM | – | – | – | – | – | – | –
10 | N/C(=N\N=C\c1cccs1)NO | > 100 µM | > 100 µM | > 100 µM | > 100 µM | > 100 µM | – | > 100 µM | – | > 100 µM | – | – | – | > 100 µM | – | – | – | – | – | – | –
